According to article PMC7775851 (Journal of Pharmaceutical Analysis, 2019):

Legend:
CYP3A = settings: cited from earlier work
[1] = Stability of ilaprazole racemate stock solution; format: physicochemical; settings: stock solution in acetonitrile, −80 °C for 15 days

Stability of stock solution (in words) [1]: stable
SMILES: COc1ccnc(C[S+]([O-])c2nc3cc(-n4cccc4)ccc3[nH]2)c1C (racemic) [ilaprazole racemate, ilaprazole]
Metabolizing enzyme (CYP3A): mainly metabolized by CYP3A
